Assay results published in the supplement of paper PMC11061612.

Columns and labels:
[1] = compound: CC(=O)c1c(C)c2cnc(Nc3ccc(N4CCNCC4)cn3)nc2n(C2CCCC2)c1=O [Palbociclib]; conditions: max 10 µM
Procedure, shortened: (§1)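 Cancer cell lines were seeded into 1536-well plates in 7.5 μl medium (DMEM/F12 or RPMI, 10% FBS), held 24 hours at 37°C and 5% CO2, and dosed for 72 hours with final DMSO typically 0.2%. Luminescence from CellTiter-Glo 2.0, scaled between blank-well and DMSO-well means, served as viability. The single-agent IC50 was obtained from dose-response fits with a non-linear mixed effects model, each fit being a two-parameter logistic curve.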

[2] = compound: COc1cc2ncnc(Nc3ccc(F)c(Cl)c3)c2cc1OCCCN1CCOCC1 [Gefitinib]; conditions: max 10 µM
Procedure, shortened: as §1

[3] = compound: C=CCn1c(=O)c2cnc(Nc3ccc(N4CCN(C)CC4)cc3)nc2n1-c1cccc(C(C)(C)O)n1 [AZD1775]; conditions: max 3 µM
Procedure, shortened: as §1

[4] = compound: CC(C)n1c(=O)n(C)c2cnc3cc(F)c(-c4ccc(OCCCN5CCCCC5)nc4)cc3c21 [AZD1390]; conditions: max 0.3 µM
Procedure, shortened: as §1

[5] = compound: C[C@@H](Oc1cc(-c2cnn(C3CCNCC3)c2)cnc1N)c1c(Cl)ccc(F)c1Cl [Crizotinib]; conditions: max 10 µM
Procedure, shortened: as §1

[6] = compound: CC1=CN2[C@@H](C1)C=NC3=CC(=C(C=C3C2=O)OC)OCCCCCOC4=C(C=C5C(=C4)N=C[C@@H]6CC(=CN6C5=O)C)OC [SG3199]; conditions: max 0.001 µM
Procedure, shortened: as §1

[7] = compound: NC1(c2ccc(-c3nc4ccn5c(=O)[nH]nc5c4cc3-c3ccccc3)cc2)CCC1 [MK-2206]; conditions: max 10 µM
Procedure, shortened: as §1

[8] = compound: Cn1cnc2c(F)c(Nc3ccc(Br)cc3Cl)c(C(=O)NOCCO)cc21 [Selumetinib]; conditions: max 10 µM
Procedure, shortened: as §1

[9] = compound: CC1=C(C(=CC=C1)Cl)NC(=O)C2=CN=C(S2)NC3=CC(=NC(=N3)C)N4CCN(CC4)CCO [Dasatinib]; conditions: max 2 µM
Procedure, shortened: as §1

[10] = compound: Cc1cc2ncnn2cc1Nc1ncc2c(n1)n(C1CCOCC1)c(=O)n2C [AZD7648]; conditions: max 10 µM
Procedure, shortened: as §1

[11] = compound: Cc1nc(-c2cn3c(n2)-c2ccc(-c4cnn(C(C)(C)C(N)=O)c4)cc2OCC3)n(C(C)C)n1 [Taselisib]; conditions: max 10 µM
Procedure, shortened: as §1

[12] = compound: C[C@@H](Nc1cc(F)cc(F)c1)c1cc(C(=O)N(C)C)cc2c(=O)cc(N3CCOCC3)oc12 [AZD8186]; conditions: max 3 µM
Procedure, shortened: as §1

[13] = compound: CC(=O)Nc1cccc(-n2c(=O)n(C3CC3)c(=O)c3c(Nc4ccc(I)cc4F)n(C)c(=O)c(C)c32)c1 [Trametinib]; conditions: max 1 µM
Procedure, shortened: as §1

[14] = compound: O=C(c1cc(Cc2n[nH]c(=O)c3ccccc23)ccc1F)N1CCN(C(=O)C2CC2)CC1 [Olaparib]
Procedure, shortened: as §1

[15] = compound: C[C@@H](c1ccc2nccn2c1)n1nnc2ncc(-c3cnn(C)c3)nc21 [Savolitinib]; conditions: max 1 µM
Procedure, shortened: as §1

[16] = compound: CCN(CCO)CCCOc1ccc2c(Nc3cc(CC(=O)Nc4cccc(F)c4)[nH]n3)ncnc2c1 [AZD2811]; conditions: max 1 µM
Procedure, shortened: as §1

[17] = compound: COc1cc(Nc2ncc3c(n2)-c2ccc(Cl)cc2C(c2c(F)cccc2OC)=NC3)ccc1C(=O)O [Alisertib]; conditions: max 10 µM
Procedure, shortened: as §1

[18] = compound: C1CN(CCC1(C(=O)N[C@@H](CCO)C2=CC=C(C=C2)Cl)N)C3=NC=NC4=C3C=CN4 [Capivasertib]; conditions: max 10 µM
Procedure, shortened: as §1

[19] = compound: COc1cccc2c1C(=O)c1c(O)c3c(c(O)c1C2=O)C[C@@](O)(C(=O)CO)C[C@@H]3O[C@H]1C[C@H](N)[C@H](O)[C@H](C)O1 [Doxorubicin]; conditions: max 1 µM
Procedure, shortened: as §1

[20] = compound: COc1nnc2ccc(N3CCC(c4ccc(OCCN5CCN(C)C(=O)[C@H]5C)cc4)CC3)nn12 [AZD5153]; conditions: max 1 µM
Procedure, shortened: as §1

[21] = compound: CCc1c2c(nc3ccc(O)cc13)-c1cc3c(c(=O)n1C2)COC(=O)[C@]3(O)CC [SN-38]; conditions: max 0.3 µM
Procedure, shortened: as §1

[22] = compound: C[C@@H]1COCCN1C2=NC(=NC(=C2)C3(CC3)[S@](=N)(=O)C)C4=C5C=CNC5=NC=C4 [AZD6738]; conditions: max 10 µM
Procedure, shortened: as §1

[23] = compound: CN(CC[C@H](CSC1=CC=CC=C1)NC2=C(C=C(C=C2)S(=O)(=O)NC(=O)C3=CC=C(C=C3)N4CCC(CC4)[C@H](C5=CC=CC=C5C6=CC=C(C=C6)Cl)O)S(=O)(=O)C(F)(F)F)CCO [AZD4320]; conditions: max 1 µM
Procedure, shortened: as §1

[24] = compound: CN(C)CCCOc1ccc(-c2ccc3ncc4c(c3c2)n(C2CCOCC2)c(=O)n4C)cn1 [AZD0156]; conditions: max 3 µM
Procedure, shortened: as §1

[25] = compound: CS(=O)(=O)CCNCc1ccc(-c2ccc3ncnc(Nc4ccc(OCc5cccc(F)c5)c(Cl)c4)c3c2)o1 [Lapatinib]; conditions: max 10 µM
Procedure, shortened: as §1

[26] = compound: CC1(C)CCC(CN2CCN(c3ccc(C(=O)NS(=O)(=O)c4ccc(NCC5CCOCC5)c([N+](=O)[O-])c4)c(Oc4cnc5[nH]ccc5c4)c3)CC2)=C(c2ccc(Cl)cc2)C1 [Venetoclax]; conditions: max 1 µM
Procedure, shortened: as §1

[27] = compound: COc1cccc(OCCCN)c1-c1cc(Nc2cnc(C#N)cn2)n[nH]1 [Prexasertib]; conditions: max 1 µM
Procedure, shortened: as §1

[28] = compound: Cc1c2c(nn1C)CSCc1cc(n(C)n1)CSc1cc(c3ccccc3c1)OCCCc1c(C(=O)O)n(C)c3c-2c(Cl)ccc13 [AZD5991]; conditions: max 1 µM
Procedure, shortened: as §1

Cell Line	IC50, cell viability 72 h [1]	IC50, cell viability 72 h [2]	IC50, cell viability 72 h [3]	IC50, cell viability 72 h [4]	IC50, cell viability 72 h [5]	IC50, cell viability 72 h [6]	IC50, cell viability 72 h [7]	IC50, cell viability 72 h [8]	IC50, cell viability 72 h [9]	IC50, cell viability 72 h [10]	IC50, cell viability 72 h [11]	IC50, cell viability 72 h [12]	IC50, cell viability 72 h [13]	IC50, cell viability 72 h ([14]; max 10 µM)	IC50, cell viability 72 h [15]	IC50, cell viability 72 h [16]	IC50, cell viability 72 h [17]	IC50, cell viability 72 h [18]	IC50, cell viability 72 h [19]	IC50, cell viability 72 h [20]	IC50, cell viability 72 h [21]	IC50, cell viability 72 h [22]	IC50, cell viability 72 h [23]	IC50, cell viability 72 h [24]	IC50, cell viability 72 h [25]	IC50, cell viability 72 h [26]	IC50, cell viability 72 h [27]	IC50, cell viability 72 h [28]	IC50, cell viability 72 h ([14]; max 3 µM)
LN-229 (Glioblastoma)	> 10 µM	> 10 µM	> 3000 nM	> 300 nM	> 10 µM	> 1 nM	> 10 µM	> 10 µM	> 2000 nM	> 10 µM	> 10000 nM	> 3000 nM	> 1000 nM	> 10 µM	> 1000 nM	> 1000 nM	> 10 µM	> 10 µM	> 1000 nM	> 1000 nM	> 300 nM	> 10 µM	> 1000 nM	> 3000 nM	> 10 µM	> 1000 nM	70.1 nM	> 1000 nM	–
RERF-GC-1B (Gastric Carcinoma)	> 10 µM	> 10 µM	401 nM	> 300 nM	7.14 µM	> 1 nM	> 10 µM	> 10 µM	28.2 nM	> 10 µM	1650 nM	> 3000 nM	462 nM	> 10 µM	> 1000 nM	> 1000 nM	3.28 µM	> 10 µM	525 nM	587 nM	60.9 nM	> 10 µM	> 1000 nM	> 3000 nM	> 10 µM	> 1000 nM	717 nM	159 nM	–
OAW-42 (Ovarian Carcinoma)	> 10 µM	> 10 µM	> 3000 nM	> 300 nM	> 10 µM	–	3 µM	> 10 µM	909 nM	> 10 µM	441 nM	> 3000 nM	> 1000 nM	–	> 1000 nM	> 1000 nM	4.55 µM	> 10 µM	–	> 1000 nM	29.5 nM	> 10 µM	> 1000 nM	> 3000 nM	> 10 µM	> 1000 nM	463 nM	> 1000 nM	> 3 µM
A2058 (Melanoma)	> 10 µM	> 10 µM	1230 nM	> 300 nM	8.25 µM	> 1 nM	> 10 µM	> 10 µM	> 2000 nM	> 10 µM	6330 nM	> 3000 nM	236 nM	> 10 µM	> 1000 nM	> 1000 nM	1.22 µM	> 10 µM	> 1000 nM	656 nM	> 300 nM	> 10 µM	> 1000 nM	> 3000 nM	8.41 µM	> 1000 nM	> 1000 nM	> 1000 nM	–
WM793B (Melanoma)	> 10 µM	> 10 µM	1930 nM	> 300 nM	> 10 µM	> 1 nM	–	7.02 µM	> 2000 nM	> 10 µM	2800 nM	> 3000 nM	175 nM	> 10 µM	> 1000 nM	> 1000 nM	> 10 µM	> 10 µM	471 nM	493 nM	22.8 nM	3.1 µM	> 1000 nM	> 3000 nM	> 10 µM	> 1000 nM	27.8 nM	> 1000 nM	–
NCI-H446 (Small Cell Lung Carcinoma)	> 10 µM	> 10 µM	400 nM	> 300 nM	1.72 µM	> 1 nM	4.5 µM	> 10 µM	> 2000 nM	> 10 µM	2860 nM	> 3000 nM	> 1000 nM	> 10 µM	> 1000 nM	42.8 nM	0.0548 µM	2.66 µM	499 nM	209 nM	62.6 nM	4.15 µM	557 nM	> 3000 nM	6.4 µM	> 1000 nM	19.3 nM	> 1000 nM	–
